Measurements taken from patent US7728012B2, “Carboxamide compounds and their use as calpain inhibitors” (Abbott GmbH & Co. KG, priority 2006, dated 2010).
pKi: −log10 of the molar value. Each block holds one compound with its values, some of them ahead of it.

Experiments:
Type in all cases: biochemical
[1] = biological target: T1, calpain-I isolated from human erythrocytes (Homo sapiens, UniProt P07384); assay: Calpain I kinetic fluorescence enzyme inhibition assay; conditions: apparent Ki from IC50 by Cheng-Prussoff; average of 2 to 4 dose-effect plots
T1 construct: calpain-I—isolated from human erythrocytes; purchased Calbiochem 208713; host or cells: human erythrocytes (tissue isolate)
T1 sequence (P07384 1-714): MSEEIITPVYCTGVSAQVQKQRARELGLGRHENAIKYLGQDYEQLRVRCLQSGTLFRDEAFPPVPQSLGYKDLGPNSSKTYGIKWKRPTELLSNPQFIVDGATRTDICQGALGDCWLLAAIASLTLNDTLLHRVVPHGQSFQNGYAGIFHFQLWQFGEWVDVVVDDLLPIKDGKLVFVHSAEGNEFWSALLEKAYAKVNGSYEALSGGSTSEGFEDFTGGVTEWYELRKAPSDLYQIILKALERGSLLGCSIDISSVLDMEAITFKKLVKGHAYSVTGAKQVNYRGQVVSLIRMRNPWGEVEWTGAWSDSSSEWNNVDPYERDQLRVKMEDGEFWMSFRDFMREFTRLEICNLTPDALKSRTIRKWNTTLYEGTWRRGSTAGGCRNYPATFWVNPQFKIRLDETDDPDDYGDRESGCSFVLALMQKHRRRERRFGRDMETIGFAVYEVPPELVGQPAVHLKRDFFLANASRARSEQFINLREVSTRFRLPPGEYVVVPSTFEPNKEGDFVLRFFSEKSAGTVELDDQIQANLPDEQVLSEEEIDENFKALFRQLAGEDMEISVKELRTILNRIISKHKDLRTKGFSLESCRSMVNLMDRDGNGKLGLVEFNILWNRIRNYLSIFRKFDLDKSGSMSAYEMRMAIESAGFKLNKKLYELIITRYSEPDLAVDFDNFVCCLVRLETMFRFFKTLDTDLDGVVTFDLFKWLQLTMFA
T1 sequence (P04632 1-268 partner): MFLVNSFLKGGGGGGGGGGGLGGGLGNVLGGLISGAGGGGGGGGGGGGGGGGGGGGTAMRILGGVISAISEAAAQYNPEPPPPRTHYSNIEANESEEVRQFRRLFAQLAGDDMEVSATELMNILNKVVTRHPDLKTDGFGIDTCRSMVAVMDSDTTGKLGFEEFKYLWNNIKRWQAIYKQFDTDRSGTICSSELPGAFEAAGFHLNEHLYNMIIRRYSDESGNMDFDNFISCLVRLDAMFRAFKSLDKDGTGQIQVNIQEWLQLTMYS

[2] = biological target: T2, cathepsin B isolated from human liver (Homo sapiens, UniProt P07858); assay: Cathepsin B kinetic fluorescence enzyme inhibition assay; conditions: selectivity ratio versus calpain I
T2 construct: cathepsin B—isolated from human liver; purchased Calbiochem 219362; host or cells: human liver (tissue isolate)
Outline: (§1)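 Inhibition is measured at room temperature in cysteine-containing MES buffer, pH 6.0, by continuous fluorescence at 460 nm. Cathepsin S (0.5 nM) uses 20 μM Z-Val-Val-Arg-AMC; L (1 nM) and B (0.25 nM) use Z-Phe-Arg-AMC at 2 and 100 μM respectively.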

[3] = biological target: T3, cathepsin K activated from recombinant human procathepsin K (Homo sapiens, UniProt P43235); assay: Cathepsin K kinetic fluorescence enzyme inhibition assay; conditions: selectivity ratio versus calpain I
T3 construct: purchased Calbiochem 342001; host or cells: E. coli
T3 sequence (P43235 115-329): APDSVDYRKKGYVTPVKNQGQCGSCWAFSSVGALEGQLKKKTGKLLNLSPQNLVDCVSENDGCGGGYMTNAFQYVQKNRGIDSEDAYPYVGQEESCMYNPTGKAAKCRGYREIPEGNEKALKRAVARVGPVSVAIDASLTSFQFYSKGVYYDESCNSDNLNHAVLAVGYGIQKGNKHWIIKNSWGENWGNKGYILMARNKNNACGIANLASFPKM

[4] = biological target: T4, cathepsin L isolated from human liver (Homo sapiens, UniProt P07711); assay: Cathepsin L kinetic fluorescence enzyme inhibition assay; conditions: selectivity ratio versus calpain I
T4 construct: cathepsin L—isolated from human liver; purchased Calbiochem 219402; host or cells: human liver (tissue isolate)
Outline: as §1

[5] = biological target: T5, recombinant human cathepsin S (Homo sapiens, UniProt P25774); assay: Cathepsin S kinetic fluorescence enzyme inhibition assay; conditions: selectivity ratio versus calpain I
T5 construct: purchased Calbiochem 219343; host or cells: E. coli
Outline: as §1

T4 sequence (P07711 114-333): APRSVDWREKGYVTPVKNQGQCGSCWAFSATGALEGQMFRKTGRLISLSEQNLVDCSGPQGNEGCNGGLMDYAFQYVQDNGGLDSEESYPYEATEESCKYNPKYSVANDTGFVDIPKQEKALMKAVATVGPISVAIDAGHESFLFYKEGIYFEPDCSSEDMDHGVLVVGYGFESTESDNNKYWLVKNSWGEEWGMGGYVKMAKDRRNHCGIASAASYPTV
T5 sequence (P25774 115-331): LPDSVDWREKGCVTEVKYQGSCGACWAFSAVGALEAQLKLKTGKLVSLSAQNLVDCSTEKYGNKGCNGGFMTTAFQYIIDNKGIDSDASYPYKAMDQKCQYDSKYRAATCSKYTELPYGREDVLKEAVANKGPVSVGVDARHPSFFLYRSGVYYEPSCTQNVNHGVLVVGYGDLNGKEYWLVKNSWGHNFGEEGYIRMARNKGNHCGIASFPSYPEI

SMILES: COc1ccc(CC(NC(=O)c2cccnc2-n2ccc(-c3ccccc3)n2)C(=O)C(N)=O)cc1 (stereo not drawn) [Example 80, N-[3-Amino-1-(4-methoxybenzyl)-2,3-dioxopropyl]-2-(3-phenyl-1H-pyrazol-1-yl)nicotinamide]
pKi [1]: 7.00 to 7.40
Sel cat. B (Ki(cathepsin B)/Ki(calpain) ratio) [2]: ++ (Ki(cathepsin B)/Ki(calpain) ratio of ≧30)
Sel cat. K (Ki(cathepsin K)/Ki(calpain) ratio) [3]: + (10≦Ki(cathepsin K)/Ki(calpain)<30)
Sel cat. L (Ki(cathepsin L)/Ki(calpain) ratio) [4]: ++ (Ki(cathepsin L)/Ki(calpain) ratio of ≧50)
Sel cat. S (Ki(cathepsin S)/Ki(calpain) ratio) [5]: ++ (Ki(cathepsin S)/Ki(calpain) ratio of ≧100)

SMILES: COc1ccc(CC(NC(=O)c2cccnc2-n2ccc(-c3ccc(F)cc3)n2)C(=O)C(N)=O)cc1 (stereo not drawn) [Example 81, N-[3-Amino-1-(4-methoxybenzyl)-2,3-dioxopropyl]-2-[3-(4-fluorophenyl)-1H-pyrazol-1-yl]nicotinamide]
pKi [1]: ≥ 7.40
Sel cat. B (Ki(cathepsin B)/Ki(calpain) ratio) [2]: + (10≦Ki(cathepsin B)/Ki(calpain)<30)
Sel cat. K (Ki(cathepsin K)/Ki(calpain) ratio) [3]: + (10≦Ki(cathepsin K)/Ki(calpain)<30)
Sel cat. L (Ki(cathepsin L)/Ki(calpain) ratio) [4]: ++ (Ki(cathepsin L)/Ki(calpain) ratio of ≧50)
Sel cat. S (Ki(cathepsin S)/Ki(calpain) ratio) [5]: ++ (Ki(cathepsin S)/Ki(calpain) ratio of ≧100)

SMILES: NC(=O)C(=O)C(Cc1ccccc1)NC(=O)c1cccnc1-n1ccc(-c2cccc(C(F)(F)F)c2)n1 (stereo not drawn) [Example 83, N-(3-Amino-1-benzyl-2,3-dioxopropyl)-2-{3-[3-(trifluoromethyl)phenyl]-1H-pyrazol-1-yl}nicotinamide]
pKi [1]: ≥ 7.40
Sel cat. B (Ki(cathepsin B)/Ki(calpain) ratio) [2]: + (10≦Ki(cathepsin B)/Ki(calpain)<30)
Sel cat. K (Ki(cathepsin K)/Ki(calpain) ratio) [3]: ++ (Ki(cathepsin K)/Ki(calpain) ratio of ≧30)
Sel cat. L (Ki(cathepsin L)/Ki(calpain) ratio) [4]: ++ (Ki(cathepsin L)/Ki(calpain) ratio of ≧50)
Sel cat. S (Ki(cathepsin S)/Ki(calpain) ratio) [5]: ++ (Ki(cathepsin S)/Ki(calpain) ratio of ≧100)

SMILES: CC(C)c1ccc(-c2ccn(-c3ncccc3C(=O)NC(Cc3ccccc3)C(=O)C(N)=O)n2)cc1 (stereo not drawn) [Example 87, N-[3-Amino-2,3-dioxo-1-(phenylmethyl)propyl]-2-{3-[4-(1-methylethyl)phenyl]-1H-pyrazol-1-yl}pyridine-3-carboxamide]
pKi [1]: ≥ 7.40
Sel cat. B (Ki(cathepsin B)/Ki(calpain) ratio) [2]: ++ (Ki(cathepsin B)/Ki(calpain) ratio of ≧30)
Sel cat. K (Ki(cathepsin K)/Ki(calpain) ratio) [3]: ++ (Ki(cathepsin K)/Ki(calpain) ratio of ≧30)
Sel cat. L (Ki(cathepsin L)/Ki(calpain) ratio) [4]: ++ (Ki(cathepsin L)/Ki(calpain) ratio of ≧50)
Sel cat. S (Ki(cathepsin S)/Ki(calpain) ratio) [5]: ++ (Ki(cathepsin S)/Ki(calpain) ratio of ≧100)

SMILES: Cl.NC(=O)C(=O)C(Cc1cccnc1)NC(=O)c1cccnc1-n1ccc(-c2ccccc2)n1 (stereo not drawn) [Example 88, N-[3-Amino-2,3-dioxo-1-(pyridin-3-ylmethyl)propyl]-2-(3-phenyl-1H-pyrazol-1-yl)pyridine-3-carboxamide hydrochloride]
pKi [1]: 7.00 to 7.40
Sel cat. B (Ki(cathepsin B)/Ki(calpain) ratio) [2]: + (10≦Ki(cathepsin B)/Ki(calpain)<30)
Sel cat. K (Ki(cathepsin K)/Ki(calpain) ratio) [3]: ++ (Ki(cathepsin K)/Ki(calpain) ratio of ≧30)
Sel cat. L (Ki(cathepsin L)/Ki(calpain) ratio) [4]: ++ (Ki(cathepsin L)/Ki(calpain) ratio of ≧50)
Sel cat. S (Ki(cathepsin S)/Ki(calpain) ratio) [5]: ++ (Ki(cathepsin S)/Ki(calpain) ratio of ≧100)

SMILES: NC(=O)C(=O)C(Cc1ccccc1)NC(=O)c1cccnc1-n1ccc(-c2c(Cl)cccc2Cl)n1 (stereo not drawn) [Example 95, N-[3-Amino-2,3-dioxo-1-(phenylmethyl)propyl]-2-[3-(2,6-dichlorophenyl)-1H-pyrazol-1-yl]pyridine-3-carboxamide]
pKi [1]: ≥ 7.40
Sel cat. B (Ki(cathepsin B)/Ki(calpain) ratio) [2]: ++ (Ki(cathepsin B)/Ki(calpain) ratio of ≧30)
Sel cat. K (Ki(cathepsin K)/Ki(calpain) ratio) [3]: ++ (Ki(cathepsin K)/Ki(calpain) ratio of ≧30)
Sel cat. L (Ki(cathepsin L)/Ki(calpain) ratio) [4]: ++ (Ki(cathepsin L)/Ki(calpain) ratio of ≧50)
Sel cat. S (Ki(cathepsin S)/Ki(calpain) ratio) [5]: ++ (Ki(cathepsin S)/Ki(calpain) ratio of ≧100)

Continued, in another order:

pKi [1]: ≥ 7.40
Sel cat. B (Ki(cathepsin B)/Ki(calpain) ratio) [2]: + (10≦Ki(cathepsin B)/Ki(calpain)<30)
SMILES: NC(=O)C(=O)C(Cc1ccccc1)NC(=O)c1cccnc1-n1ccc(-c2c(F)cccc2F)n1 (stereo not drawn) [Example 85, N-[3-Amino-2,3-dioxo-1-(phenylmethyl)propyl]-2-[3-(2,6-difluorophenyl)-1H-pyrazol-1-yl]pyridine-3-carboxamide]
Sel cat. K (Ki(cathepsin K)/Ki(calpain) ratio) [3]: ++ (Ki(cathepsin K)/Ki(calpain) ratio of ≧30)
Sel cat. L (Ki(cathepsin L)/Ki(calpain) ratio) [4]: ++ (Ki(cathepsin L)/Ki(calpain) ratio of ≧50)
Sel cat. S (Ki(cathepsin S)/Ki(calpain) ratio) [5]: ++ (Ki(cathepsin S)/Ki(calpain) ratio of ≧100)

pKi [1]: ≥ 7.40
Sel cat. K (Ki(cathepsin K)/Ki(calpain) ratio) [3]: + (10≦Ki(cathepsin K)/Ki(calpain)<30)
SMILES: COc1ccccc1-c1ccn(-c2ncccc2C(=O)NC(Cc2ccccc2)C(=O)C(N)=O)n1 (stereo not drawn) [Example 90, N-[3-Amino-2,3-dioxo-1-(phenylmethyl)propyl]-2-{3-[2-(methyloxy)phenyl]-1H-pyrazol-1-yl}pyridine-3-carboxamide]
Sel cat. B (Ki(cathepsin B)/Ki(calpain) ratio) [2]: ++ (Ki(cathepsin B)/Ki(calpain) ratio of ≧30)
Sel cat. L (Ki(cathepsin L)/Ki(calpain) ratio) [4]: ++ (Ki(cathepsin L)/Ki(calpain) ratio of ≧50)
Sel cat. S (Ki(cathepsin S)/Ki(calpain) ratio) [5]: ++ (Ki(cathepsin S)/Ki(calpain) ratio of ≧100)

pKi [1]: ≥ 7.40
Sel cat. K (Ki(cathepsin K)/Ki(calpain) ratio) [3]: + (10≦Ki(cathepsin K)/Ki(calpain)<30)
SMILES: NC(=O)C(=O)C(Cc1ccccc1)NC(=O)c1cccnc1-n1ccc(-c2cc(F)cc(F)c2)n1 (stereo not drawn) [Example 91, N-[3-Amino-2,3-dioxo-1-(phenylmethyl)propyl]-2-[3-(3,5-difluorophenyl)-1H-pyrazol-1-yl]pyridine-3-carboxamide]
Sel cat. B (Ki(cathepsin B)/Ki(calpain) ratio) [2]: ++ (Ki(cathepsin B)/Ki(calpain) ratio of ≧30)
Sel cat. L (Ki(cathepsin L)/Ki(calpain) ratio) [4]: ++ (Ki(cathepsin L)/Ki(calpain) ratio of ≧50)
Sel cat. S (Ki(cathepsin S)/Ki(calpain) ratio) [5]: ++ (Ki(cathepsin S)/Ki(calpain) ratio of ≧100)

pKi [1]: 7.00 to 7.40
Sel cat. K (Ki(cathepsin K)/Ki(calpain) ratio) [3]: + (10≦Ki(cathepsin K)/Ki(calpain)<30)
SMILES: COc1ccc(CC(NC(=O)c2cccnc2-n2ccc(-c3ccccc3F)n2)C(=O)C(N)=O)cc1 (stereo not drawn) [Example 92, N-(3-Amino-1-{[4-(methyloxy)phenyl]methyl}-2,3-dioxopropyl)-2-[3-(2-fluorophenyl)-1H-pyrazol-1-yl]pyridine-3-carboxamide]
Sel cat. B (Ki(cathepsin B)/Ki(calpain) ratio) [2]: ++ (Ki(cathepsin B)/Ki(calpain) ratio of ≧30)
Sel cat. L (Ki(cathepsin L)/Ki(calpain) ratio) [4]: ++ (Ki(cathepsin L)/Ki(calpain) ratio of ≧50)
Sel cat. S (Ki(cathepsin S)/Ki(calpain) ratio) [5]: ++ (Ki(cathepsin S)/Ki(calpain) ratio of ≧100)

pKi [1]: ≥ 7.40
Sel cat. K (Ki(cathepsin K)/Ki(calpain) ratio) [3]: + (10≦Ki(cathepsin K)/Ki(calpain)<30)
SMILES: Cc1ccccc1-c1ccn(-c2ncccc2C(=O)NC(Cc2ccccc2)C(=O)C(N)=O)n1 (stereo not drawn) [Example 93, N-[3-Amino-2,3-dioxo-1-(phenylmethyl)propyl]-2-[3-(2-methylphenyl)-1H-pyrazol-1-yl]pyridine-3-carboxamide]
Sel cat. B (Ki(cathepsin B)/Ki(calpain) ratio) [2]: ++ (Ki(cathepsin B)/Ki(calpain) ratio of ≧30)
Sel cat. L (Ki(cathepsin L)/Ki(calpain) ratio) [4]: ++ (Ki(cathepsin L)/Ki(calpain) ratio of ≧50)
Sel cat. S (Ki(cathepsin S)/Ki(calpain) ratio) [5]: ++ (Ki(cathepsin S)/Ki(calpain) ratio of ≧100)

pKi [1]: 7.00 to 7.40
Sel cat. K (Ki(cathepsin K)/Ki(calpain) ratio) [3]: + (10≦Ki(cathepsin K)/Ki(calpain)<30)
SMILES: NC(=O)C(=O)C(Cc1ccccc1)NC(=O)c1cccnc1-n1ccc(-c2ccc(F)cc2F)n1 (stereo not drawn) [Example 94, N-[3-Amino-2,3-dioxo-1-(phenylmethyl)propyl]-2-[3-(2,4-difluorophenyl)-1H-pyrazol-1-yl]pyridine-3-carboxamide]
Sel cat. B (Ki(cathepsin B)/Ki(calpain) ratio) [2]: ++ (Ki(cathepsin B)/Ki(calpain) ratio of ≧30)
Sel cat. L (Ki(cathepsin L)/Ki(calpain) ratio) [4]: ++ (Ki(cathepsin L)/Ki(calpain) ratio of ≧50)
Sel cat. S (Ki(cathepsin S)/Ki(calpain) ratio) [5]: ++ (Ki(cathepsin S)/Ki(calpain) ratio of ≧100)
